Reference: publication PMC6979384, “Characterization of the plant homeodomain (PHD) reader family for their histone tail interactions” (Epigenetics & Chromatin, 2020)

How the values were obtained:
Test in all cases: Histone peptide microarray
Assay type in all cases: binding, human
AIRE (PP) = conditions: GST-tagged AIRE (PP); histone peptide array; arrays performed twice, n of 4
Method in brief: (§1)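 Binding read as mean relative signal from 4 replicates; microarray held 293 synthetic histone peptides with single or combinatorial PTMs. Each GST-tagged PHD reader was applied at 0.5 μM using the optimized Petell protocol.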

ING3 = conditions: GST-tagged ING3; histone peptide array; arrays performed twice, n of 4
Method in brief: as §1

ING5 = conditions: GST-tagged ING5; histone peptide array; arrays performed twice, n of 4
Method in brief: as §1

PHRF1 (RP) = conditions: GST-tagged PHRF1 (RP); histone peptide array; arrays performed twice, n of 4
Method in brief: as §1

ING1 = conditions: GST-tagged ING1; histone peptide array; arrays performed twice, n of 4
Method in brief: as §1

MLL5 = conditions: GST-tagged MLL5; histone peptide array; arrays performed twice, n of 4
Method in brief: as §1

PHF13 = conditions: GST-tagged PHF13; histone peptide array; arrays performed twice, n of 4
Method in brief: as §1

BPTF (PB) = conditions: GST-tagged BPTF (PB = PHD + Bromodomain); histone peptide array; arrays performed twice, n of 4
Method in brief: as §1

CHD5 (PPCC) = conditions: GST-tagged CHD5 (PPCC = Dual PHD + Dual Chromodomain); histone peptide array; arrays performed twice, n of 4
Method in brief: as §1

ING4 = conditions: GST-tagged ING4; histone peptide array; arrays performed twice, n of 4
Method in brief: as §1

TRIM66 (PB) = conditions: GST-tagged TRIM66 (PB = PHD + Bromodomain); histone peptide array; arrays performed twice, n of 4
Method in brief: as §1

KDM5A (1) = conditions: GST-tagged KDM5A (1); histone peptide array; arrays performed twice, n of 4
Method in brief: as §1

BAZ2B = conditions: GST-tagged BAZ2B; histone peptide array; arrays performed twice, n of 4
Method in brief: as §1

MORC3 (CW) = conditions: GST-tagged MORC3 (CW = CW-type Zn-finger); histone peptide array; arrays performed twice, n of 4
Method in brief: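 GST-tagged PHD readers, 0.5 μM, probed on a microarray of 293 synthetic histone peptides carrying single or combinatorial PTMs (optimized Petell protocol). Signals are averaged over 4 replicates and expressed as relative binding.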

RAG2 = conditions: GST-tagged RAG2; histone peptide array; arrays performed twice, n of 4
Method in brief: as §1

PHF2 = conditions: GST-tagged PHF2; histone peptide array; arrays performed twice, n of 4
Method in brief: as §1

KDM7A = conditions: GST-tagged KDM7A; histone peptide array; arrays performed twice, n of 4
Method in brief: as §1

SP140L = conditions: GST-tagged SP140L; histone peptide array; arrays performed twice, n of 4
Method in brief: as §1

DPF2 (PPC2W2) = conditions: GST-tagged DPF2 (PPC2W2 = Dual PHD + C2W2-type Zn-finger); histone peptide array; arrays performed twice, n of 4
Method in brief: as §1

KDM5B (1) = conditions: GST-tagged KDM5B (1); histone peptide array; arrays performed twice, n of 4
Method in brief: as §1

DIDO1 = conditions: GST-tagged DIDO1; histone peptide array; arrays performed twice, n of 4
Method in brief: as §1

PHF8 = conditions: GST-tagged PHF8; histone peptide array; arrays performed twice, n of 4
Method in brief: as §1

CHD5 (PCC) = conditions: GST-tagged CHD5 (PCC = PHD + Dual Chromodomain); histone peptide array; arrays performed twice, n of 4
Method in brief: as §1

CHD4 (PPCC) = conditions: GST-tagged CHD4 (PPCC = Dual PHD + Dual Chromodomain); histone peptide array; arrays performed twice, n of 4
Method in brief: as §1

KDM4C (TTP) = conditions: GST-tagged KDM4C (TTP = Tandem Tudor domain + PHD); histone peptide array; arrays performed twice, n of 4
Method in brief: as §1

KDM5A (3) = conditions: GST-tagged KDM5A (3); histone peptide array; arrays performed twice, n of 4
Method in brief: as §1

KDM5B (3) = conditions: GST-tagged KDM5B (3); histone peptide array; arrays performed twice, n of 4
Method in brief: as §1

PHF21A = conditions: GST-tagged PHF21A; histone peptide array; arrays performed twice, n of 4
Method in brief: as §1

ING2 = conditions: GST-tagged ING2; histone peptide array; arrays performed twice, n of 4
Method in brief: as §1

TAF3 = conditions: GST-tagged TAF3; histone peptide array; arrays performed twice, n of 4
Method in brief: as §1

PHF23 = conditions: GST-tagged PHF23; histone peptide array; arrays performed twice, n of 4
Method in brief: as §1

| Substance | Array Heatmap signal, AIRE (PP) (AIRE (PP)) | Array Heatmap signal, ING3 (ING3) | Array Heatmap signal, ING5 (ING5) | Array Heatmap signal, PHRF1 (RP) (PHRF1 (RP)) | Array Heatmap signal, ING1 (ING1) | Array Heatmap signal, MLL5 (MLL5) | Array Heatmap signal, PHF13 (PHF13) | Array Heatmap signal, BPTF (PB) (BPTF (PB)) | Array Heatmap signal, CHD5 (PPCC) (CHD5 (PPCC)) | Array Heatmap signal, ING4 (ING4) | Array Heatmap signal, TRIM66 (PB) (TRIM66 (PB)) | Array Heatmap signal, KDM5A (1) (KDM5A (1)) | Array Heatmap signal, BAZ2B (BAZ2B) | Array Heatmap signal, MORC3 (CW) (MORC3 (CW)) | Array Heatmap signal, RAG2 (RAG2) | Array Heatmap signal, PHF2 (PHF2) | Array Heatmap signal, KDM7A (KDM7A) | Array Heatmap signal, SP140L (SP140L) | Array Heatmap signal, DPF2 (PPC2W2) (DPF2 (PPC2W2)) | Array Heatmap signal, KDM5B (1) (KDM5B (1)) | other results |
| --- | --- | --- | --- | --- | --- | --- | --- | --- | --- | --- | --- | --- | --- | --- | --- | --- | --- | --- | --- | --- | --- |
| H3Cit2 + K4ac + K9ac + K14ac + K18ac: H3 1-20 | 0.5046 | 0.4982 | 0.342 | 0.4027 | 0.5011 | 0.5262 | 0.6115 | 0.3441 | 0.5544 | 0.466 | 0.5899 | 0.4761 | 0.5241 | 0.3458 | 0.246 | 0.465 | 0.3757 | 0.3325 | 0.6168 | 0.646 | Array Heatmap signal, DIDO1 (DIDO1): 0.6333; Array Heatmap signal, PHF8 (PHF8): 0.3508; Array Heatmap signal, CHD5 (PCC) (CHD5 (PCC)): 0.8259; Array Heatmap signal, CHD4 (PPCC) (CHD4 (PPCC)): 0.5849; Array Heatmap signal, KDM4C (TTP) (KDM4C (TTP)): 0.4985; Array Heatmap signal, KDM5A (3) (KDM5A (3)): 0.3736; Array Heatmap signal, KDM5B (3) (KDM5B (3)): 0.5221; Array Heatmap signal, PHF21A (PHF21A): 0.4553; Array Heatmap signal, ING2 (ING2): 0.5962; Array Heatmap signal, TAF3 (TAF3): 0.2461; Array Heatmap signal, PHF23 (PHF23): 0.5298 |
| H3Cit2 + K4me2: H3 1-20 | 0.3883 | 0.4571 | 0.3412 | 0.4884 | 0.5902 | 0.5743 | 0.6272 | 0.3387 | 0.5328 | 0.4531 | 0.6817 | 0.4439 | 0.45 | 0.7482 | 0.6011 | 0.7165 | 0.3325 | 0.366 | 0.6839 | 0.6545 | Array Heatmap signal, DIDO1 (DIDO1): 0.7273; Array Heatmap signal, PHF8 (PHF8): 0.4758; Array Heatmap signal, CHD5 (PCC) (CHD5 (PCC)): 0.7759; Array Heatmap signal, CHD4 (PPCC) (CHD4 (PPCC)): 0.5675; Array Heatmap signal, KDM4C (TTP) (KDM4C (TTP)): 0.4533; Array Heatmap signal, KDM5A (3) (KDM5A (3)): 0.6902; Array Heatmap signal, KDM5B (3) (KDM5B (3)): 0.6867; Array Heatmap signal, PHF21A (PHF21A): 0.4507; Array Heatmap signal, ING2 (ING2): 0.6329; Array Heatmap signal, TAF3 (TAF3): 0.4779; Array Heatmap signal, PHF23 (PHF23): 0.5864 |
| H3Cit2 + K4me3 + K9ac + K14ac + K18ac: H3 1-20 | 0.3964 | 0.4771 | 0.327 | 0.4303 | 0.5664 | 0.6331 | 0.5903 | 0.3451 | 0.5144 | 0.4376 | 0.557 | 0.4209 | 0.483 | 0.4875 | 0.3489 | 0.7451 | 0.3427 | 0.3551 | 0.6832 | 0.5319 | Array Heatmap signal, DIDO1 (DIDO1): 0.8494; Array Heatmap signal, PHF8 (PHF8): 0.4072; Array Heatmap signal, CHD5 (PCC) (CHD5 (PCC)): 0.7154; Array Heatmap signal, CHD4 (PPCC) (CHD4 (PPCC)): 0.6008; Array Heatmap signal, KDM4C (TTP) (KDM4C (TTP)): 0.4327; Array Heatmap signal, KDM5A (3) (KDM5A (3)): 0.5236; Array Heatmap signal, KDM5B (3) (KDM5B (3)): 0.4827; Array Heatmap signal, PHF21A (PHF21A): 0.4881; Array Heatmap signal, ING2 (ING2): 0.6235; Array Heatmap signal, TAF3 (TAF3): 0.287; Array Heatmap signal, PHF23 (PHF23): 0.5313 |
